Results reported in patent US9662390B2, “Use of opioid antagonists to attenuate endothelial cell proliferation and migration” (THE UNIVERSITY OF CHICAGO, priority 2005, dated 2017).
Entries after “also recorded” stand apart in the source; their conditions may differ.

Experiments:
[1] = test system: human pulmonary microvascular endothelial cells (HPMVEC); assay: Human pulmonary microvascular EC migration assay (Transwell); type: cell-based; conditions: for agonist-induced HPMVEC migration: agonist 100 nM, 18 hours
[2] = test system: human pulmonary microvascular endothelial cells (HPMVEC); assay: Human pulmonary microvascular EC proliferation assay (CellTiter96 MTS); type: cell-based; conditions: for agonist-induced HPMVEC proliferation: agonist 100 nM, 24 h, serum-free media
VEGF receptor 1 (Flt-1) = assay: Tyrosine phosphorylation of VEGF receptor 1, immunoprecipitation and immunoblot; type: cell-based, human; conditions: HPMVEC
VEGF receptor 2 (Flk-1) = assay: Tyrosine phosphorylation of VEGF receptor 2, immunoprecipitation and immunoblot; type: cell-based, human; conditions: HPMVEC
RhoA = RhoA activation assay (RBD beads, anti-RhoA immunoblot); type: cell-based, human; conditions: for agonist-stimulated RhoA activation: endothelial cells
Text: The supernatant is removed and the RBD-beads with the GTP-bound form of RhoA bound are washed extensively.

VEGF receptor = assay: Tyrosine phosphorylation of the VEGF receptor in EC (Example 9); type: cell-based, human
PDGF receptor = assay: Tyrosine phosphorylation of the PDGF receptor in EC (Example 9); type: cell-based, human
S1P3 receptor = assay: Tyrosine phosphorylation of the S1P3 receptor in EC (Example 9); type: cell-based, human
mu opioid receptor = mu opioid receptor (Homo sapiens, UniProt P35372); assay: Serine/threonine phosphorylation of the mu opioid receptor in EC (Example 9); type: cell-based
Sequence of mu opioid receptor (P35372 whole entry): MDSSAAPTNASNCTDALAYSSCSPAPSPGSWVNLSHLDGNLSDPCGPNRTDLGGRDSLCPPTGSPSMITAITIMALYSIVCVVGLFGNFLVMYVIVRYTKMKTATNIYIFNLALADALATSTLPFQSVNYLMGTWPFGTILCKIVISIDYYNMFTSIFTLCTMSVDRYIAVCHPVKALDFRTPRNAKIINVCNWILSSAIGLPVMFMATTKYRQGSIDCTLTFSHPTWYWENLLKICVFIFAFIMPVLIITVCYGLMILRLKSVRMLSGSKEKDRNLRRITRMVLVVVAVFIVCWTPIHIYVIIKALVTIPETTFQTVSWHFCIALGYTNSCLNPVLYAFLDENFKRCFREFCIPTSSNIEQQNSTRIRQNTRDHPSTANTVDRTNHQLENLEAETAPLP

tumors = assay: Tumor-bearing mice: tumor growth and angiogenesis; type: in vivo; conditions: eight weeks; for angiogenesis and tumor growth, combination of opioid, opioid antagonist and anticancer agent compared to the other groups: antagonist 5 mg/kg/day, morphine 0.5 mg/kg/day, bevacizumab (Avastin) 5 mg/kg every 14 days; for tumor growth and angiogenesis compared to controls or opioid alone: antagonist orally 5 mg/kg/day with morphine orally 0.5 mg/kg/day
tumor = assay: Human cancer patients: tumor growth and angiogenesis; type: in vivo; conditions: antagonist orally 5 mg/kg/day, eight weeks, with opioid and bevacizumab (Avastin)
[3] = in vivo; cited from earlier work
[4] = white crystalline powder, typically the bromide salt; cited from earlier work
F11 c-1 = conditions: T241 fibrosarcoma; no increase in morphine treated KO mice; cited from earlier work
[5] = sickle cell disease; cited from earlier work
[6] = test system: morphine induced angiogenesis; conditions: xenograft tumor model in mice; cited from earlier work
[7] = MNTX 100 nM (0.1 μM, 1 hour pretreatment), induced by MS/morphine, DAMGO, VEGF, in Example 9 also S1P and PDGF

Compound: C[C@@H](NC(=O)[C@@H](N)Cc1ccc(O)cc1)C(=O)NCC(=O)N(C)[C@@H](Cc1ccccc1)C(=O)NCCO [DAMGO, [D-Ala^2, N-MePhe^4, Gly^5-ol] enkephalin]
- agonist-induced HPMVEC migration [1]: induce HPMVEC migration; also recorded: induced
- agonist-induced HPMVEC proliferation [2]: stimulate HPMVEC proliferation; also recorded: induced proliferation
- agonist-induced tyrosine phosphorylation of VEGF receptor 1 (Flt-1) (VEGF receptor 1 (Flt-1)): induce tyrosine phosphorylation
- agonist-induced tyrosine phosphorylation of VEGF receptor 2 (Flk-1) (VEGF receptor 2 (Flk-1)): induce tyrosine phosphorylation
- agonist-stimulated RhoA activation (RhoA): stimulate RhoA activation
- agonist-induced tyrosine phosphorylation of the VEGF receptor (VEGF receptor): induced tyrosine phosphorylation
- agonist-induced tyrosine phosphorylation of the PDGF receptor (PDGF receptor): induced tyrosine phosphorylation
- agonist-induced tyrosine phosphorylation of the S1P3 receptor (S1P3 receptor): induced tyrosine phosphorylation

Compound: C[N+]1(CC2CC2)CCC23c4c5ccc(O)c4OC2C(=O)CCC3(O)C1C5 (stereo not shown) [MNTX, N-methylnaltrexone]
- inhibition of agonist-induced HPMVEC migration [1, 7]: inhibited
- inhibition of agonist-induced HPMVEC proliferation [2, 7]: attenuated; also recorded: inhibited
- effect on MS and DAMGO induced tyrosine phosphorylation of VEGF receptor 1 (VEGF receptor 1 (Flt-1)): blocked
- effect on VEGF induced tyrosine phosphorylation of VEGF receptor 1 (VEGF receptor 1 (Flt-1)): attenuates
- effect on MS and DAMGO induced tyrosine phosphorylation of VEGF receptor 2 (VEGF receptor 2 (Flk-1)): blocked
- effect on VEGF induced tyrosine phosphorylation of VEGF receptor 2 (VEGF receptor 2 (Flk-1)): attenuates
- effect on agonist-stimulated RhoA activation (RhoA; induced by morphine/MS, DAMGO, VEGF, in Example 9 also S1P and PDGF): inhibited; also recorded: attenuated
- effect of MNTX pretreatment on agonist-induced VEGF receptor phosphorylation (VEGF receptor): attenuated
- effect of MNTX pretreatment on agonist-induced PDGF receptor phosphorylation (PDGF receptor): attenuated
- effect of MNTX pretreatment on agonist-induced S1P3 receptor phosphorylation (S1P3 receptor): attenuated
- effect of MNTX pretreatment on agonist-induced mu opioid receptor phosphorylation (mu opioid receptor): attenuated
- angiogenesis and tumor growth, combination of opioid, opioid antagonist and anticancer agent compared to the other groups (tumors): enhanced result
- tumor growth and angiogenesis compared to controls or opioid alone (tumors): reduction in tumor growth and angiogenesis
- angiogenesis and tumor growth, combination of opioid, opioid antagonist and anticancer agent compared to the other groups (tumor): enhanced result
- tolerability of doses that maintain plasma MNTX between about 25 and 150 ng/mL [3]: well tolerated
- solubility in water [4]: freely soluble in water

Compound: CCCCCCCCCCCCC/C=C/[C@@H](O)[C@@H](N)COP(=O)(O)O [SIP, sphingosine 1-phosphate]
- agonist-induced HPMVEC migration [1]: induced
- agonist-induced HPMVEC proliferation [2]: induced proliferation
- agonist-stimulated RhoA activation (RhoA): activation of the cytoskeletal regulatory small G-protein, RhoA
- agonist-induced serine/threonine phosphorylation of the mu opioid receptor (mu opioid receptor): induced serine/threonine phosphorylation

Compound: C[C@H]1CN(C[C@H](Cc2ccccc2)C(=O)NCC(=O)O)CC[C@@]1(C)c1cccc(O)c1 [alvimopan]
- angiogenesis and tumor growth, combination of opioid, opioid antagonist and anticancer agent compared to the other groups (tumors): enhanced result
- tumor growth and angiogenesis compared to controls or opioid alone (tumors): reduction in tumor growth and angiogenesis
- angiogenesis and tumor growth, combination of opioid, opioid antagonist and anticancer agent compared to the other groups (tumor): enhanced result

Compound: CN1CC[C@]23c4c5ccc(O)c4O[C@H]2[C@@H](O)C=C[C@H]3[C@H]1C5 [morphine]
- agonist-induced HPMVEC migration [1]: induced
- agonist-induced HPMVEC migration ([1]; listed as MS): induce HPMVEC migration
- agonist-induced HPMVEC proliferation [2]: induced proliferation
- agonist-induced HPMVEC proliferation ([2]; listed as MS): stimulate HPMVEC proliferation
- agonist-induced tyrosine phosphorylation of VEGF receptor 1 (Flt-1) (VEGF receptor 1 (Flt-1)): induce tyrosine phosphorylation
- agonist-induced tyrosine phosphorylation of VEGF receptor 2 (Flk-1) (VEGF receptor 2 (Flk-1)): induce tyrosine phosphorylation
- agonist-stimulated RhoA activation (RhoA): stimulate RhoA activation
- agonist-stimulated RhoA activation (RhoA; listed as MS): stimulate RhoA activation
- agonist-induced tyrosine phosphorylation of the VEGF receptor (VEGF receptor): induced tyrosine phosphorylation
- agonist-induced tyrosine phosphorylation of the PDGF receptor (PDGF receptor): induced tyrosine phosphorylation
- agonist-induced tyrosine phosphorylation of the S1P3 receptor (S1P3 receptor): induced tyrosine phosphorylation
- increase in F11 c-1 expression in morphine treated mice versus controls (F11 c-1): 10 fold
- proliferative retinopathy [5]: induced proliferative retinopathy

Compound: C=CCN1CC[C@]23c4c5ccc(O)c4O[C@H]2C(=O)CC[C@@]3(O)[C@H]1C5 [naloxone]
- effect on morphine induced angiogenesis [6]: did not exhibit a significant effect

Compound: platelet-derived growth factor [PDGF]
- agonist-induced HPMVEC migration [1]: induced
- agonist-induced HPMVEC proliferation [2]: induced proliferation
- agonist-stimulated RhoA activation (RhoA): activation of the cytoskeletal regulatory small G-protein, RhoA
- agonist-induced serine/threonine phosphorylation of the mu opioid receptor (mu opioid receptor): induced serine/threonine phosphorylation

Compound: vascular endothelial growth factor [VEGF]
- agonist-induced HPMVEC migration [1]: induce HPMVEC migration; also recorded: induced
- agonist-induced HPMVEC proliferation [2]: stimulate HPMVEC proliferation; also recorded: induced proliferation
- agonist-induced tyrosine phosphorylation of VEGF receptor 1 (Flt-1) (VEGF receptor 1 (Flt-1)): induced
- agonist-induced tyrosine phosphorylation of VEGF receptor 2 (Flk-1) (VEGF receptor 2 (Flk-1)): induced
- agonist-stimulated RhoA activation (RhoA): stimulate RhoA activation; also recorded: activation of the cytoskeletal regulatory small G-protein, RhoA
- agonist-induced serine/threonine phosphorylation of the mu opioid receptor (mu opioid receptor): induced serine/threonine phosphorylation
